Measured values taken from the supplement of paper PMC4862054.
“And” between values parts separate entries of the source, which are not always exact repeats. Equal values may be shown once.

Key:
Conditions in all cases: incubation time: 72 h
MDA-MB-436 [1] = assay: normalised viability (% of control), CellTiter-Blue; higher = more viable cells (100 = DMSO, 0 = benzethonium chloride kill control)
Procedure: (§1)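 DSRT, CellTiter-Blue viability, 72 h incubation. Signal is normalised to DMSO and benzethonium chloride controls. Value is the normalised response at dose 1.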

HCC1937 = assay: as above
Procedure: as §1

MDA-MB-231 [2] = assay: as above
Procedure: as §1

HCC1143 = assay: as above
Procedure: as §1

MDA-MB-453 [3] = assay: as above
Procedure: as §1

Hs578T = assay: as above
Procedure: as §1

BT-474 [4] = assay: as above
Procedure: as §1

DU-4475 [5] = assay: as above
Procedure: as §1

HCC1599 [6] = assay: as above
Procedure: as §1

BT-549 = assay: as above
Procedure: as §1

MDA-MB-468 = assay: as above
Procedure: as §1

MFM-223 = assay: as above
Procedure: as §1

CAL-148 = assay: as above
Procedure: as §1

CAL-85-1 [7] = assay: as above
Procedure: as §1

CAL-120 = assay: as above
Procedure: as §1

HDQ-P1 [8] = assay: as above
Procedure: as §1

CAL-51 = assay: as above
Procedure: as §1

SK-BR-3 [9] = assay: as above
Procedure: as §1

MDA-MB-436 [10] = assay: drug sensitivity score (DSS), CellTiter-Blue viability (DSS (AUC-based score)); higher = stronger viability inhibition; extreme values may be limits of the assay
Procedure: (§2)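 DSRT with the CellTiter-Blue (resazurin reduction) viability readout, fluorescence 560/590 nm, 72 h incubation. Plates were normalised to DMSO and benzethonium chloride controls. DSS is computed from the area under the fitted dose-response curve (5 or 9 concentrations).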

MDA-MB-231 [11] = assay: as above
Procedure: as §2

MDA-MB-453 [12] = assay: as above
Procedure: as §2

BT-474 [13] = assay: as above
Procedure: as §2

DU-4475 [14] = assay: as above
Procedure: as §2

HCC1599 [15] = assay: as above
Procedure: as §2

CAL-85-1 [16] = assay: as above
Procedure: as §2

HDQ-P1 [17] = assay: as above
Procedure: as §2

SK-BR-3 [18] = assay: as above
Procedure: as §2

Compound | normalised viability (MDA-MB-436 [1]; 0.1 nM) | normalised viability (MDA-MB-231 [2]; 0.1 nM) | normalised viability (MDA-MB-453 [3]; 0.1 nM) | normalised viability (Hs578T; 0.1 nM) | normalised viability (BT-474 [4]; 0.1 nM) | normalised viability (DU-4475 [5]; 0.1 nM) | normalised viability (HCC1599 [6]; 0.1 nM) | normalised viability (BT-549; 0.1 nM) | normalised viability (MDA-MB-468; 0.1 nM) | normalised viability (MFM-223; 0.1 nM) | normalised viability (CAL-148; 0.1 nM) | drug sensitivity score (MDA-MB-436 [10]) | drug sensitivity score (MDA-MB-231 [11]) | drug sensitivity score (MDA-MB-453 [12]) | drug sensitivity score (BT-474 [13]) | drug sensitivity score (DU-4475 [14]) | drug sensitivity score (HCC1599 [15]) | drug sensitivity score (CAL-85-1 [16]) | drug sensitivity score (HDQ-P1 [17]) | drug sensitivity score (SK-BR-3 [18]) | further results
COc1cc(CCc2cc(NC(=O)c3ccc(N4CC(C)NC(C)C4)cc3)n[nH]2)cc(OC)c1 (centres undefined) [AZD4547] | 94.4% | 100% | 105% | 108% | 112% | 95.7% | 115% | 111% | 125% | 91.8% | 113% | 0 | 0 | 5.67 | 0 | 3.06 | 6.62 | 3.12 | 0 | 0 | normalised viability (HCC1937; 0.1 nM): 105%; normalised viability (HCC1143; 0.1 nM): 96%; normalised viability (CAL-85-1 [7]; 0.1 nM): 89.7%; normalised viability (CAL-120; 0.1 nM): 93.6%; normalised viability (HDQ-P1 [8]; 0.1 nM): 139%; normalised viability (CAL-51; 0.1 nM): 117%; normalised viability (SK-BR-3 [9]; 0.1 nM): 102%
Cc1ccc(Nc2nccc(N(C)c3ccc4c(C)n(C)nc4c3)n2)cc1S(N)(=O)=O [Pazopanib] |  |  |  |  |  |  |  |  |  |  |  | 4.09 | 0 | 6.67 | 0 | 0 | 0 | 0 | 1.38 | 0 | normalised viability (MDA-MB-436 [1]; 1 nM): 95.8%; normalised viability (HCC1937; 1 nM): 77.9%; normalised viability (MDA-MB-231 [2]; 1 nM): 97.7%; normalised viability (HCC1143; 1 nM): 87.1%; normalised viability (MDA-MB-453 [3]; 1 nM): 106%; normalised viability (Hs578T; 1 nM): 94.8%; normalised viability (BT-474 [4]; 1 nM): 93.2%; normalised viability (DU-4475 [5]; 1 nM): 98.9%; normalised viability (HCC1599 [6]; 1 nM): 103%; normalised viability (BT-549; 1 nM): 110%; normalised viability (MDA-MB-468; 1 nM): 106%; normalised viability (MFM-223; 1 nM): 90%; normalised viability (CAL-148; 1 nM): 89.3%; normalised viability (CAL-85-1 [7]; 1 nM): 93.6%; normalised viability (CAL-120; 1 nM): 78.5%; normalised viability (HDQ-P1 [8]; 1 nM): 72.8%; normalised viability (CAL-51; 1 nM): 103%; normalised viability (SK-BR-3 [9]; 1 nM): 105%
CS(=O)(=O)N1CCN(Cc2cc3nc(-c4cccc5[nH]ncc45)nc(N4CCOCC4)c3s2)CC1 [GDC-0941] |  |  |  |  |  |  |  |  |  |  |  | 7.33 | 8.4 | 18.5 | 11.8 | 2.84 | 11.7 | 9.93 | 18.3 | 19.4 | normalised viability (MDA-MB-436 [1]; 1 nM): 118%; normalised viability (HCC1937; 1 nM): 112%; normalised viability (MDA-MB-231 [2]; 1 nM): 92.9%; normalised viability (HCC1143; 1 nM): 84.1%; normalised viability (MDA-MB-453 [3]; 1 nM): 93%; normalised viability (Hs578T; 1 nM): 112%; normalised viability (BT-474 [4]; 1 nM): 101%; normalised viability (DU-4475 [5]; 1 nM): 106%; normalised viability (HCC1599 [6]; 1 nM): 92.8%; normalised viability (BT-549; 1 nM): 94.6%; normalised viability (MDA-MB-468; 1 nM): 95.5%; normalised viability (MFM-223; 1 nM): 89.7%; normalised viability (CAL-148; 1 nM): 100%; normalised viability (CAL-85-1 [7]; 1 nM): 87.5%; normalised viability (CAL-120; 1 nM): 89.7%; normalised viability (HDQ-P1 [8]; 1 nM): 109%; normalised viability (CAL-51; 1 nM): 114%; normalised viability (SK-BR-3 [9]; 1 nM): 88.3%
CC[C@@]1(O)C(=O)OCc2c1cc1n(c2=O)Cc2cc3c(CN(C)C)c(O)ccc3nc2-1 [Topotecan] | 99.9% | 98.6% | 110% | 110% | 111% | 102% | 90.8% | 96.1% | 107% | 100% | 103% | 6.23 | 3.58 | 3.26 | 0 | 11.1 | 3.96 | 3.4 | 0.903 | 11.3 | normalised viability (HCC1937; 0.1 nM): 81.5%; normalised viability (HCC1143; 0.1 nM): 98.3%; normalised viability (CAL-85-1 [7]; 0.1 nM): 85.5%; normalised viability (CAL-120; 0.1 nM): 85.9%; normalised viability (HDQ-P1 [8]; 0.1 nM): 115%; normalised viability (CAL-51; 0.1 nM): 92.5%; normalised viability (SK-BR-3 [9]; 0.1 nM): 92.4%
COc1nc(N)nc2c1ncn2[C@@H]1O[C@H](CO)[C@@H](O)[C@@H]1O [Nelarabine] |  |  |  |  |  |  |  |  |  |  |  | 0 | 0 | 0 | 0 | 0 | 0 | 0 | 0 | 0 | normalised viability (MDA-MB-436 [1]; 1 nM): 98.1% and 89.7%; normalised viability (HCC1937; 1 nM): 94.7% and 81.3%; normalised viability (MDA-MB-231 [2]; 1 nM): 93.7% and 78.7%; normalised viability (HCC1143; 1 nM): 105% and 98.5%; normalised viability (MDA-MB-453 [3]; 1 nM): 101% and 80.4%; normalised viability (Hs578T; 1 nM): 99.1% and 107%; normalised viability (DU-4475 [5]; 1 nM): 109% and 118%; normalised viability (HCC1599 [6]; 1 nM): 121% and 119%; normalised viability (BT-549; 1 nM): 92% and 96.5%; normalised viability (MDA-MB-468; 1 nM): 103% and 92.2%; normalised viability (MFM-223; 1 nM): 97.6% and 107%; normalised viability (CAL-148; 1 nM): 101% and 110%; normalised viability (CAL-85-1 [7]; 1 nM): 105% and 107%; normalised viability (CAL-120; 1 nM): 101% and 102%; normalised viability (HDQ-P1 [8]; 1 nM): 77.2% and 91.2%; normalised viability (CAL-51; 1 nM): 102% and 99.3%; normalised viability (SK-BR-3 [9]; 1 nM): 90% and 95.9%
Cc1nc(Nc2ncc(C(=O)Nc3c(C)cccc3Cl)s2)cc(N2CCN(CCO)CC2)n1 [Dasatinib] | 94.8% and 91.2% | 110% and 86.5% | 103% and 97.2% | 107% and 97.2% | 97.5% and 85.4% | 109% and 110% | 106% and 88.6% | 101% and 89.2% | 109% and 100% | 99.2% and 94.2% | 104% and 96.1% | 7.53 and 9.46 | 9.89 and 15.2 | 0 | 0 | 0 | 0 | 8.12 and 9 | 19.3 and 21.9 | 0 | normalised viability (HCC1143; 0.1 nM): 102% and 84.5%; normalised viability (CAL-85-1 [7]; 0.1 nM): 97.2% and 88.5%; normalised viability (CAL-120; 0.1 nM): 104% and 85.6%; normalised viability (HDQ-P1 [8]; 0.1 nM): 126% and 109%; normalised viability (CAL-51; 0.1 nM): 105% and 114%; normalised viability (SK-BR-3 [9]; 0.1 nM): 98.2% and 92.7%
CCN(CC)CCNC(=O)c1c(C)[nH]c(/C=C2\C(=O)Nc3ccc(F)cc32)c1C [Sunitinib] | 98.4% and 105% | 82.2% and 85.6% | 99.7% and 100% | 104% and 115% | 81% and 89.3% | 101% and 89.2% | 112% and 101% | 87.1% and 85% | 94.7% and 98.5% | 99.6% and 109% | 104% and 107% | 0 | 0 | 0 | 0 | 0 | 0 | 0 |  | 0 | normalised viability (HCC1937; 0.1 nM): 91.7% and 88.2%; normalised viability (CAL-85-1 [7]; 0.1 nM): 89.3% and 104%; normalised viability (HDQ-P1 [8]; 0.1 nM): 100% and 93.2%; normalised viability (CAL-51; 0.1 nM): 111% and 96%; normalised viability (SK-BR-3 [9]; 0.1 nM): 94.2% and 93.7%
